Reference: patent US20250345318A1, “COMPOUND AND USE THEREOF IN PREVENTING OR TREATING RADIATION DAMAGE” (SIMCERE PHARMACEUTICAL CO., LTD., priority 2022, published 2025)

Experiments:
JWA = JWA expression in small intestine by Western blot (Example 4); assay type: in vivo, mice; settings: small intestine tissue; JAC4 100 mg/kg oral, 7 days before and 4 days after TBI 6 Gy
Method: C57BL/6 male mice (24.8±1.6 g in body weight) aged 10 weeks were divided into 2 groups. After acclimating to the environment, JAC4 (100 mg/kg) or an equal volume of vehicle (polyethylene glycol:ethanol:physiological saline=47.5:7.5:50, v/v/v) was orally administered to the mice once daily for 7 consecutive days. After that, the mice were subjected to total body X-ray irradiation (6 Gy) and JAC4 or vehicle treatment was continued for 4 days, after which small intestine tissues were collected. The expression levels of JWA in the small intestine were detected by Western blot, with β-actin as the reference. Adobe photoshop CC was used to measure the grayscale value of JWA/β-actin in panel A for statistical analysis (** p<0.01).
The Western blot procedures are as follows:
1. Protein sample preparation: Proper volumes of protein sample solutions were mixed with physiological saline to give […] solutions at a volume of 16 μL, and 4 μL of 5×SDS sample buffer was added. The mixture was uniformly mixed, centrifuged at 1000×g for 10 s, and boiled at 100° C. for 5 min. The samples were cooled at room temperature and then preserved in a −20° C. freezer.
(1) Lower separating gel: The glass plates and gel cassette were assembled while ensuring that the bottom of the glass plates was sealed to prevent leakage of the gel. […]

C57BL/6 male mice = assay: Body weight after abdominal X-ray irradiation 12 Gy (Example 9); assay type: in vivo; settings: JAC4 100 mg/kg oral + abdominal X-ray 12 Gy
Method: CS7BL/6 male mice aged 10 weeks were divided into 3 groups, i.e., a vehicle control group, a vehicle+radiation group, and a JAC4+radiation group 8 days after radiation, with 6 mice in each group. JAC4 (100 mg/kg) or an equal volume of vehicle (polyethylene glycol:ethanol:physiological saline=47.5:7.5:50, v/v/v) was orally administered to the mice once daily for 7 days. After that, the mice were subjected to abdominal X-ray irradiation (12 Gy) and the JAC4 or vehicle treatment was continued for 4 days. The body weights of the mice before and after […] X-ray irradiation were recorded daily, and body weight curves were plotted.

IEC-6 cells = assay: γ-H2AX immunofluorescence in irradiated IEC-6 cells (Example 13); assay type: cell-based; settings: JAC4 + radiation
Method: The cell immunofluorescent images of γ-H2AX in different treatment groups were recorded after the IEC-6 cells were irradiated, and the mean fluorescence intensity of individual cells (***p<0.001) was measured using Image J. The results are shown in FIG. 19.

NF-κB = NF-κB nuclear translocation by Western blot, BEAS-2B (Example 22); assay type: cell-based, human; settings: JAC4 in combination with X-ray
Text: The production of ROS may lead to the activation of NF-κB, promote the translocation of NF-κB to the cell nucleus, and mediate various inflammatory responses. The nuclear and cytoplasmic proteins in BEAS-2B cells in all groups were separated.

[1] = test system: SPCA-1 cells transfected with JWA-knockdown plasmids; assay: Colony formation of SPCA-1 cells transfected with JWA-knockdown plasmids (Example 22); assay type: cell-based, human; settings: JAC4-treated JWA-knockdown SPCA-1 vs JAC4-treated si-Control
Method: 1. SPCA-1 and BEAS-2B cells (or SPCA-1 and BEAS-2B cells transfected with JWA-knockdown plasmids) in the exponential growth phase were plated in 6-well plates at a specific amount. The number of plated cells is as follows
2. After the cells adhered to the container wall, the cells were treated (or not treated) with […] JAC4 and treated with X-ray of 0, 2, 4, or 6 Gy. The medium was replaced with a fresh medium containing JAC4 at the corresponding concentration once every 2 days (or the cells were treated with X-ray of 0, 2, 4, or 6 Gy after adhesion, and the medium was replaced with a fresh medium once every 2 days).
3. After the cells were cultured for 10-14 days, colonies were visually observed. The culture medium was discarded, and the cells were fixed with methanol for 10-20 min, stained with crystal violet for 10 min, slowly washed with flowing clear water thrice, photographed, and counted for colonies containing>50 cells.
4. The colony forming efficiency (CFE)=(number of colonies formed/number of seeded cells) 100% was calculated, and the cell survival fraction (SF)=(colony forming efficiency of treatment group/colony forming efficiency of 0 Gy group)×100% was calculated from the colony forming efficiency. […]

SMILES: c1ccc(CSc2nnc(C3COc4ccccc4O3)o2)nc1 (stereo not drawn) [JAC4]
- mean grayscale value of JWA expression (JWA/β-actin) (JWA): 0.72±0.13
- body weight curve (C57BL/6 male mice): consistently above that of the vehicle+radiation group
- mean fluorescence intensity of γ-H2AX (IEC-6 cells): 26.00±1.79
- X-ray-induced increase of NF-κB nuclear expression (NF-κB): inhibited
- cell survival rate (radiosensitization curve) [1]: significantly increased
- number of colonies formed [1]: significantly higher
